According to patent publication US5869484A, “Phenylcarbamate derivatives suitable to the use as anticholinesterase substances” (priority 1994, dated 1999):
Like-named read-outs stand apart in the source and are kept apart here.

Experiments:
[1] = Acute toxicity (single administration) in rat; details: in vivo
[2] = prior art; cited from earlier work
[3] = tested on: acetylcholinesterase; details: prior art; cited from earlier work
[4] = target: T1, BuChE hserum (Homo sapiens, UniProt P06276); experiment: Inhibition of butyrylcholinesterase from human serum (Ellman method); assay type: biochemical
T1 construct: purchased Sigma Chemical; host or cells: human serum
Description: (§1) The incubation time between enzyme and product used for the determinations has been 10'.
(§2) The acetylcholinesterase from human erythrocytes (AChE hRBC), the acetylcholinesterase from Electric Eel (AChE E.eel) and the butyrylcholinesterase from human serum (BuChE hserum) coming from the Sigma Chemical have been used.

[5] = prior art; cited from earlier work; remark: listed apart in the source
[6] = target: T2, AChE E. eel (Electrophorus electricus, UniProt O42275); experiment: biochemical; parameters: species or system Electric Eel
T2 construct: purchased Sigma Chemical
Description: as §1, §2

[7] = Acute toxicity (single administration) in mouse; details: in vivo
[8] = target: T3, AChE hRBC (Homo sapiens, UniProt P22303); experiment: biochemical
T3 construct: purchased Sigma Chemical; host or cells: human erythrocytes
Description: as §1, §2

[9] = tested on: amnesic failure induced by scopolamine; experiment: Passive Avoidance test, scopolamine-induced amnesic failure, rats; assay type: in vivo; details: 0.5-1-2-4 mg/kg per os
[10] = tested on: mental pathologies / Alzheimer's disease; details: prior art, clinical studies; cited from earlier work
[11] = po, os, read-out: Toxicity tests (LD50), rat os
[12] = iv, read-out: Toxicity tests (LD50), mouse iv
[13] = po, os, read-out: Toxicity tests (LD50), mouse os

T3 sequence (P22303 32-617 isoform P22303-2 limits assumed): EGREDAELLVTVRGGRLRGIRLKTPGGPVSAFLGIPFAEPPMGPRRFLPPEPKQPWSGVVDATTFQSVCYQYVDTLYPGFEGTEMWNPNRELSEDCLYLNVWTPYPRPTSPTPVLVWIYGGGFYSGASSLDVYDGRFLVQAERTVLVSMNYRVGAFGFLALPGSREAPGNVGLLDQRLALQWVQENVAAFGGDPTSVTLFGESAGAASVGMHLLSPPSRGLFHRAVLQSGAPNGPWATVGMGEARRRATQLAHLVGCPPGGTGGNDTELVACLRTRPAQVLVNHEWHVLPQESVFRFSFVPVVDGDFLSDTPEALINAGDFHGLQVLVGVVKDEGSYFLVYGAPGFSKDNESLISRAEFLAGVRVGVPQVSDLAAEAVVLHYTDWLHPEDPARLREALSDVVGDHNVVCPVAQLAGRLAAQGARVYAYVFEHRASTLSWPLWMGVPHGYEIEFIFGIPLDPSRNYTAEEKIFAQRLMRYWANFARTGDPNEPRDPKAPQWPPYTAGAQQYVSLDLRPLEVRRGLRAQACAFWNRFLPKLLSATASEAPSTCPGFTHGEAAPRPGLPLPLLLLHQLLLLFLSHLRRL
T2 sequence (O42275 24-633): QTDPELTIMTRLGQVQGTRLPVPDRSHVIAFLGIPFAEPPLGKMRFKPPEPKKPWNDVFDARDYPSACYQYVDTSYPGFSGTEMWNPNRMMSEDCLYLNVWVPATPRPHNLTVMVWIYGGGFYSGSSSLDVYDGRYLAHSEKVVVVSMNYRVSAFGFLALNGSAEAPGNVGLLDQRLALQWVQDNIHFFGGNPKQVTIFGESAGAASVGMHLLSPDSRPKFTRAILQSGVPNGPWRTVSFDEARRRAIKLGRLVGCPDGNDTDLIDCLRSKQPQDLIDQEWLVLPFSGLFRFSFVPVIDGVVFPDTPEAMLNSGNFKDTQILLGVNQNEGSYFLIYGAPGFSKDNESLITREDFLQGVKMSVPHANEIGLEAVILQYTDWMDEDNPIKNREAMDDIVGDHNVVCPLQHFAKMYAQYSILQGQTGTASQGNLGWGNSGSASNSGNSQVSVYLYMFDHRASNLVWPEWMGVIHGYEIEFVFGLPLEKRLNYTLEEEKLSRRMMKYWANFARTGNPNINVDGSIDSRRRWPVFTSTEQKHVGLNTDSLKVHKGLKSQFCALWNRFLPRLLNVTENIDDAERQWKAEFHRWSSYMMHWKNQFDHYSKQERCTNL
T1 sequence (P06276 29-602): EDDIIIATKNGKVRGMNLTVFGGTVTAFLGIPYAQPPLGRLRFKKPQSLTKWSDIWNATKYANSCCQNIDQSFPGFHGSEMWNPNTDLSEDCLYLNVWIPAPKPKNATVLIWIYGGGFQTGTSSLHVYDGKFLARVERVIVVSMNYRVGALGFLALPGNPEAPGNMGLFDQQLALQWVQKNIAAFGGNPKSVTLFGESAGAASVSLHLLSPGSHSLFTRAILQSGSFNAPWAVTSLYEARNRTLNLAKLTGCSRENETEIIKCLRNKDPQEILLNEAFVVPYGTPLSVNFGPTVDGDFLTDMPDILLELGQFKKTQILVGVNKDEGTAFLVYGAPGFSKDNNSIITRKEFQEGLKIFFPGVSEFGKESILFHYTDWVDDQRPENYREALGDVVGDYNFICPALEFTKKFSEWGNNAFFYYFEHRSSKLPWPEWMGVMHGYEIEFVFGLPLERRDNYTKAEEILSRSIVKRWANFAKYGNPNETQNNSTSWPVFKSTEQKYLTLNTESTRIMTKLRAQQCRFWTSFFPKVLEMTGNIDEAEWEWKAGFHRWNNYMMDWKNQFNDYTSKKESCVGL

Structure (SMILES)	LD50 ([1]; iv, read-out: Toxicity tests (LD50), rat iv)	LD50 [1, 11]	side-effects [2]	inhibition of acetylcholinesterase [3]	IC50 [4]	pharmacokinetic characteristics [5]	IC50 ([6]; incubation time 10', read-out: Inhibition of the cholinesterase (IC50 M), AChE E. eel)	LD50 [7, 12]	LD50 [7, 13]	IC50 [8]	potency compared with eptastigmine, physostigmine or tacrine ([8]; comparison from Table 1)	reduction of amnesic failure induced by scopolamine in the Passive Avoidance test [9]	IC50 [6]	potency compared with eptastigmine, physostigmine or tacrine [8]	efficacy in patients [10]
CCCCCCCNC(=O)Oc1ccc2c(c1)[C@]1(C)CCN(C)[C@@H]1N2C [Eptastigmine, heptylcarbamic ester of the eseroline, reference compound]	5 mg/kg	23 mg/kg	reduced side-effects	less powerful	140 nM	better pharmacokinetic characteristics	50 nM	7 mg/kg	25 mg/kg						
CN(C)CC(C)(C)c1cccc(OC(=O)NCCCCCCCCN2CCOCC2)c1 [Ex. 1, 3-[(1-dimethylamino-2-methyl)prop-2-yl]-N-[8-(4-morpholinyl)octyl]phenylcarbamate]		33 mg/kg			16 nM			15 mg/kg	67 mg/kg	160 nM	equal or even superior to that of eptastigmine or of physostigmine	able to reduce the amnesic failure induced by scopolamine	470 nM		
CNC(=O)Oc1ccc2c(c1)[C@]1(C)CCN(C)[C@@H]1N2C [Physostigmine, reference compound]				powerful natural inhibitor of the acetylcholinesterase		unfavourable pharmacokinetic characteristics		0.6 mg/kg	3.4 mg/kg					superior to that of tacrine	beneficial results in the treatment of the patients affected by mental pathologies
